Assays:
Conditions in all cases: 48 h
[1] = test system: CU-ACC1; experiment: AC50 viability; higher = less potent
Summary of the method: (§1)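 Luminescence from CellTiter-Glo, read after 48 h, measured three adrenocortical carcinoma cell lines treated in 1,536-well plates with library compounds at 11 concentrations. Values were normalised per plate to vehicle and empty-well controls. The AC50 and area under the curve come from fitted concentration-response curves in inhibitory or non-responding classes only.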

[2] = test system: CU-ACC2; experiment: AC50 viability; higher = less potent
Summary of the method: as §1

[3] = test system: NCI-H295R; experiment: AC50 viability; higher = less potent
Summary of the method: as §1

[4] = test system: CU-ACC1; experiment: area under concentration-response curve (viability) (AUC (a.u.)); higher = less active
Summary of the method: as §1

[5] = test system: CU-ACC2; experiment: as above
Summary of the method: as §1

[6] = test system: NCI-H295R; experiment: as above
Summary of the method: as §1

| Structure (SMILES) | AC50 viability [1] [µM] | AC50 viability [2] [µM] | AC50 viability [3] [µM] | area under concentration-response curve [4] | area under concentration-response curve [5] | area under concentration-response curve [6] |
| --- | --- | --- | --- | --- | --- | --- |
| NC1(CCC1)C2=CC=C(C=C2)C3=C(C=C/4C(=N3)\C=C/N5C(=O)N\N=C45)C6=CC=CC=C6 | 9.34 | 18.6 | 16.6 | 442 | 523 | 404 |
| C/C=C1\NC(=O)[C@H]2CSSCC/C=C\[C@H](CC(=O)N[C@H](C(C)C)C(=O)N2)OC(=O)[C@H](C(C)C)NC1=O | 0.00742 | 0.0235 | 0.118 | 235 | 224 | 293 |
| CC(C)c1c2cc(-c3ccnc(N[C@H]4CC[C@H](NC5CCOCC5)CC4)n3)ccc2nn1C | 0.372 | 0.263 | 0.417 | 333 | 376 | 380 |
| Cc1cc(CN2CCN(c3c(Br)cnc4[nH]c(-c5ccc(N6CCN(C)CC6)cc5)nc34)CC2)no1 | 0.934 | 20.9 | 26.3 | 459 | 478 | 425 |
| C[C@@H]1CN[C@H]2[C@@H](C)[C@@]3(CC[C@H]4[C@@H]5CC[C@@H]6C[C@@H](CC[C@]6(C)[C@H]5C\C4=C(C)\C3)N[S+](C)([O-])=O)O[C@@H]2C1 | 16.6 | 20.9 | 14.8 | 467 | 539 | 504 |
| COCCOc1ccc2c(c1)ncn2-c1ccc2cccc(N3CCC(N)CC3)c2n1 | 16.6 | 10.5 | 6.61 | 409 | 370 | 420 |
| Nc1cc(C(F)(F)F)c(-c2cc(N3CCOCC3)nc(N3CCOCC3)n2)cn1 | 9.34 | 4.68 | 2.63 | 400 | 539 | 449 |
| C=CCNC1=C2C[C@@H](C)C[C@H](OC)[C@H](O)[C@@H](C)/C=C(\C)[C@H](OC(N)=O)[C@@H](OC)/C=C\C=C(/C)C(=O)NC(=CC1=O)C2=O | 10.5 | 13.2 | 37.2 | 433 | 418 | 515 |
| CN(C)CCN(C)C(=O)c1ccc(NC(=O)Nc2ccc(-c3nc(N4CCOCC4)c4ccn(CC(F)(F)F)c4n3)cc2)cc1 | 4.68 | 3.72 | 5.9 | 307 | 307 | 354 |
| COc1cc(CCc2cc(NC(=O)c3ccc(N4C[C@@H](C)N[C@@H](C)C4)cc3)n[nH]2)cc(OC)c1 | 10.5 | 11.8 | 9.34 | 445 | 522 | 477 |
| CCNCCc1ccc(CN(CC)c2cc(OC)ccc2[C@@H]2CCc3cc(O)ccc3C2)cc1 | 9.34 | 7.42 | 7.42 | 447 | 515 | 440 |
| Fc1cccc(-n2cnc3c(NCc4nc5ccc(F)c(F)c5[nH]4)nc(N4CCOCC4)nc32)c1 | 0.661 | 0.742 | 1.05 | 367 | 371 | 394 |
| Cc1ccc(NC(=O)Nc2cc(C(F)(F)F)ccc2F)cc1Nc1ccc2c(c1)NC(=O)/C2=C\c1ccc[nH]1 | 14.8 | 23.5 | 13.2 | 441 | 506 | 476 |
| C1CCC(C(CC2CCCCN2)C2CCCCC2)CC1 (stereo unspecified) | 8.33 | 11.8 | 9.34 | 398 | 460 | 414 |
| Nc1ccccc1NC(=O)c1ccc(CNc2nccc(-c3cccnc3)n2)cc1 | 2.09 | 5.25 | 2.35 | 309 | 445 | 339 |
| O=C(NC1CCNCC1)c1n[nH]cc1NC(=O)c1c(Cl)cccc1Cl | 9.34 | 3.32 | 16.6 | 464 | 512 | 542 |
| CCCCCCCOc1ccc(CCC(N)(CO)CO)cc1C(F)(F)F | 14.8 | 16.6 | 9.34 | 446 | 553 | 466 |
| CCN1CCN(Cc2ccc(Nc3ncc(F)c(-c4cc(F)c5nc(C)n(C(C)C)c5c4)n3)nc2)CC1 | 18.6 | 8.33 | 18.6 | 463 | 362 | 480 |
| CC[C@@H]1C(=O)N(C)c2cnc(Nc3ccc(C(=O)NC4CCC(N5CCN(CC6CC6)CC5)CC4)cc3OC)nc2N1C(C)C (stereo partly specified) | 7.42 | 9.34 | 7.42 | 472 | 450 | 429 |
| Nc1ccc(/C=C/C(=O)NCc2cc3cc(-c4ccc(C(=O)N5CCC(F)(F)CC5)cc4)cc(-c4ccc(F)cc4)c3o2)cn1 | 2.09 | 2.35 | 3.32 | 340 | 447 | 458 |
| CN(C)Cc1c(C(=O)NCCOc2ccc(C(=O)NO)cc2)oc2ccccc12 | 1.48 | 1.48 | 1.32 | 412 | 425 | 412 |
| COc1cc2ncnc(Nc3ccc(F)c(Cl)c3)c2cc1NC(=O)/C=C/CN1CCCCC1 | 10.5 | 8.33 | 6.61 | 414 | 493 | 459 |
| O=C(Nc1ncc(SCCN2CCCC2)s1)[C@]1(c2ccc([S+](=O)([O-])C3CC3)cc2)C[C@H]1C1CCCCC1 | 13.2 | 26.3 | 10.5 | 442 | 507 | 437 |
| COc1cc(OCc2cccc(-c3ccccc3)c2C)cc(OC)c1CN1CCCC[C@H]1C(=O)O | 16.6 | 20.9 | 18.6 | 444 | 546 | 514 |
| CCNC(=O)c1cc2c(-c3cc(OCCN4CCCC4)c(Cl)cc3Cl)nc(N)nc2s1 | 5.12 | 5.74 | 2.57 | 431 | 445 | 433 |
| O=C(c1ccc(Nc2nccc(-c3cc4ccccc4s3)n2)cc1)N1CCC(N2CCCC2)CC1 | 9.34 | 7.42 | 6.61 | 446 | 521 | 462 |

— the supplement of paper PMC10949913
